# Test results from article PMC6718478, “A Comprehensive Antimicrobial Activity Evaluation of the Recombinant Microcin J25 Against the Foodborne Pathogens Salmonella and E. coli O157:H7 by Using a Matrix of Conditions” (Frontiers in Microbiology, 2019).
# Positions of bridges follow the written chain, without caps; N, C: chain ends. Residues, ends and D or L forms follow the SMILES beside them.
# Experiments:
# IPEC-J2 cells = test: Salmonella invasion of IPEC-J2 cell monolayers; assay type: cell-based; details: 6 h with recombinant MccJ25, Salmonella for 2 h; plate counts, n = 9
# Protocol: FIGURE S1 | Protective effects of recombinant MccJ25 against Salmonella invasion of IPEC-J2 cell monolayers. IPEC-J2 cells were cultured with or without recombinant MccJ25 for 6 h in the absence or presence of Salmonella for 2 h. The invasion of Salmonella in the IPEC-J2 cells was determined. Salmonella (mean CFU/ml ± SEMs) were determined by plate counts, and determined from three individual experiments. n = 9. Different superscript lowercase letters within each group indicate significant differences (P < 0.05).
# S. Typhimurium [1] = test: Antimicrobial activity in biological food products (skim milk, egg yolk, mincemeat extract); assay type: cell-based, Salmonella Typhimurium; details: 4 × MIC, SKM, 37°C; for viable bacteria after 24 h in the three food products: SEY, SMS, data not shown
# Protocol: (§1) To further investigate the effects of recombinant MccJ25 on Salmonella and E. coli O157:H7 in different biological food products, sterile skim milk, egg yolk and mincemeat (pork) extract were collected and used as described previously with minor modifications ([Sable et al., 2000]). The skim milk, egg and mincemeat samples were purchased from a Carrefour store in Beijing. Specimens were kept on ice packs in coolers until they reached the laboratory, where they were stored at 4°C. The skim milk (SKM) and mincemeat supernatant (SMS) were autoclave sterilized at 121°C for 20 min. After autoclaving, the SKM and SMS samples were stored at 4°C for further use. The eggs were sterilized with 75% ethanol and transferred into an exceptionally clean bench to collect the egg yolk (SEY). The SEY was diluted 1:1 with sterile distilled water. Biological product samples were mixed with a final concentration of 4 × MIC of recombinant MccJ25 solution in sterile saline water (0.85%). They were then inoculated with S. Pullorum, S. […] Sterilized saline water (SSW) with the recombinant MccJ25 was utilized for comparison. This assay was performed to obtain the desired quantity of cells. The mixtures were tested after 24 h of incubation at 37°C with shaking (250 rpm). After incubation, Salmonella species and E. coli O157:H7 were serially diluted with PBS and plated on LB and TSA agar. The plates were incubated at 37°C overnight to count colony. Colonies were counted to determine CFU/mL. The experiment was conducted with two replicates in three independent trials.
# S. Pullorum [2] = test: Thermal stability, inhibition zone read-out; assay type: physicochemical, Salmonella Pullorum; details: temperatures as high as 121°C for 20 min; 150 μL of 1 × MIC; Oxford cup inhibition zone on LB agar, overnight 37°C; three replicate experiments
# Protocol: […] The assays were conducted as described previously ([Chen et al., 2009]; [Meng et al., 2019]), with slight modifications. LB agar inoculated with the indicator bacteria S. Pullorum (approximately 10^5 viable cells per mL) was poured over plates fitted with Oxford cups to make wells. 150 μL of 1 × MIC final concentration of recombinant MccJ25 samples previously treated under various conditions were added to the wells. The agar overlays were incubated overnight at 37°C, and the inhibition zones were recorded.
# S. Pullorum [3] = test: Antimicrobial activity in different growth phases, viable plate counting; assay type: cell-based, Salmonella Pullorum; details: LB, n = 6; for time to reduction to undetectable levels: early- or late-log phase cells, plate counts at 0, 12, 24, 48 h; for time to reduction to non-detectable levels: stationary phase cells, plate counts
# Protocol: The effect of growth phase on the anti-Salmonella and -E. coli O157:H7 activity of recombinant MccJ25 was determined by the viable plate counting method, as described previously ([Ma et al., 2016]; [Fan et al., 2017]), with minor modifications. Cultures of the strains in the early-log phase, late-log phase and stationary phase were washed, concentrated and diluted with sterilized phosphate-buffered saline (PBS) to approximately 10^7 CFU/mL. Then, 1 mL was incubated individually in 9 mL of PBS to reach an approximate 10^6 CFU/mL final concentration. The bacterial cells were then inoculated into 5 mL of LB containing different concentrations of MccJ25 (0, 1 × MIC, 2 × MIC, and 4 × MIC). At 0, 12, 24, and 48 h post incubation, the cultures (0.1 mL) were serially diluted with PBS and plated on LB and TSA agar. The plates were incubated at 37°C overnight to count colony. Colonies were counted to determine CFU/mL. The experiment was conducted with two replicates in three independent trials.
# S. Pullorum [4] = test: SEM of cell membrane morphology; assay type: cell-based, Salmonella Pullorum; details: 1 or 4 × MIC for 1 h at 37°C; ~2 × 10^6 cells
# Protocol: To assess the alteration of S. Pullorum cell membrane morphology and ultrastructure, SEM and TEM were performed as described previously, with minor modifications ([Wang et al., 2017]; [Meng et al., 2019]). For SEM sample preparation, approximately 2 × 10^6 S. Pullorum cells were incubated at 37°C for 1 h with the recombinant MccJ25 at 1× and 4 × MIC levels. The control was performed without the recombinant MccJ25. After incubation, the cells were harvested, mixed and centrifuged at 8,000 × g for 3 min. The bacterial pellets were washed three times in PBS and centrifuged at 3,000 × g for 10 min. The bacterial cells were resuspended in 500 μL of PBS and supplemented with 2.5% fresh glutaraldehyde at 4°C overnight. Thereafter, the bacterial pellets were postfixed in 1% osmium tetroxide, dehydrated, and coated with gold-palladium. They were observed by SEM (EVO MA10 XVP, Carl Zeiss).
# S. Typhimurium [5] = test: Live/Dead BacLight viability assay; assay type: cell-based, Salmonella Typhimurium; details: at the MIC level, 2 h at 37°C, 5 × 10^4 CFU/mL in LB; fluorescence microscopy
# Protocol: A Live/Dead BacLight Bacterial Viability Kit 7 (Molecular Probes, Inc., Eugene) was used to test bacterial viability. Briefly, 5 × 10^4 CFU/mL S. Pullorum, S. Typhimurium, and E. coli O157:H7 were inoculated into 1 mL of LB containing recombinant MccJ25 at the MIC level specific for each pathogen. Bacterial cultures were incubated at 37°C for 2 h and then incubated in the dark at ambient temperature with SYTO 9 and propidium iodide for 15 min. Bacteria were observed using a fluorescence microscope (EVOS XL Cell Imaging System).
# S. Pullorum [6] = test: Antimicrobial activity in biological food products (skim milk, egg yolk, mincemeat extract); assay type: cell-based, Salmonella Pullorum; details: 4 × MIC, 37°C; for viable bacteria after 24 h in the three food products: SKM, SEY, SMS, data not shown; for CFU reduction after 24 h: inoculum 10^6 CFU/mL, 250 rpm, plate counts, n = 6
# Protocol: as §1
smiles,measurement,setting,value
"CC[C@H](C)[C@H](NC(=O)CNC(=O)[C@@H](NC(=O)[C@H](Cc1ccccc1)NC(=O)[C@H](Cc1ccc(O)cc1)NC(=O)[C@@H]1CCC(=O)NCC(=O)NCC(=O)N[C@@H](C)C(=O)NCC(=O)N[C@@H](Cc2c[nH]cn2)C(=O)N[C@@H](C(C)C)C(=O)N2CCC[C@H]2C(=O)N1)C(C)C)C(=O)NCC(=O)N[C@H](C(=O)N1CCC[C@H]1C(=O)N[C@H](C(=O)N[C@@H](CO)C(=O)N[C@@H](Cc1ccccc1)C(=O)N[C@@H](Cc1ccc(O)cc1)C(=O)NCC(=O)O)[C@@H](C)CC)[C@@H](C)O [recombinant MccJ25, microcin J25] (GGAGHVPEYFVGIGTPISFYG-OH; lactam N-8 (inferred); C-terminus assumed)",S. Pullorum invasion of IPEC-J2 cells,IPEC-J2 cells,inhibited S. Pullorum invasion
same,viable bacteria after 24 h in the three food products,S. Typhimurium [1]; inoculum 10^3 CFU/mL,no viable bacteria were detected
same,viable bacteria after 24 h in the three food products,S. Typhimurium [1]; inoculum 10^4 CFU/mL,no bacteria were detected
same,CFU reduction after 24 h,"S. Typhimurium [1]; SEY, and SMS, inoculum 10^6 CFU/mL, plate counts, n = 6",approximately 10^3 CFU/mL
same,influence of temperature on activity against S. Pullorum (thermal stability),S. Pullorum [2],no influence
same,time to reduction to undetectable levels,S. Pullorum [3]; 8 μg/mL,≤ 24 h
same,time to reduction to undetectable levels,S. Pullorum [3]; 4 × MIC,≤ 12 h
same,time to reduction to non-detectable levels,S. Pullorum [3]; 8 μg/mL,≤ 48 h
same,time to reduction to non-detectable levels,S. Pullorum [3]; 16 μg/mL,≤ 24 h
same,cell membrane morphology by SEM,S. Pullorum [4],"minimal membrane roughening, enlargement, and some filiferous adhesions in a small amount of cells"
same,"bactericidal activity, Live/Dead staining (SYTO 9 / propidium iodide)",S. Typhimurium [5],excellent bactericidal activity
same,viable bacteria after 24 h in the three food products,S. Pullorum [6]; inoculum 10^3 CFU/mL,no viable bacteria were detected
same,viable bacteria after 24 h in the three food products,S. Pullorum [6]; inoculum 10^4 CFU/mL,no bacteria were detected
same,CFU reduction after 24 h,"S. Pullorum [6]; sterilized egg yolk (SEY), diluted 1:1",~8 × 10^3 CFU/mL
same,CFU reduction after 24 h,S. Pullorum [6]; sterilized mincemeat supernatant (SMS),~7 × 10^3 CFU/mL
same,CFU reduction after 24 h,S. Pullorum [6]; sterilized skim milk (SKM),approximately 10^4 CFU/mL
